Columns and labels:
ACSF2 = biological target: T1, ACSF2 (Homo sapiens, UniProt Q96CM8); experiment: Acyl-CoA synthetases selectivity panel: ACSF2; type: biochemical; details: human recombinant protein, substrate octanoate, AMP readout by HPLC; read-out: HPLC based activity assays IC50 (UM) ACSF2
T1 construct: purchased Cusabio, China
T1 sequence (Q96CM8 42-615): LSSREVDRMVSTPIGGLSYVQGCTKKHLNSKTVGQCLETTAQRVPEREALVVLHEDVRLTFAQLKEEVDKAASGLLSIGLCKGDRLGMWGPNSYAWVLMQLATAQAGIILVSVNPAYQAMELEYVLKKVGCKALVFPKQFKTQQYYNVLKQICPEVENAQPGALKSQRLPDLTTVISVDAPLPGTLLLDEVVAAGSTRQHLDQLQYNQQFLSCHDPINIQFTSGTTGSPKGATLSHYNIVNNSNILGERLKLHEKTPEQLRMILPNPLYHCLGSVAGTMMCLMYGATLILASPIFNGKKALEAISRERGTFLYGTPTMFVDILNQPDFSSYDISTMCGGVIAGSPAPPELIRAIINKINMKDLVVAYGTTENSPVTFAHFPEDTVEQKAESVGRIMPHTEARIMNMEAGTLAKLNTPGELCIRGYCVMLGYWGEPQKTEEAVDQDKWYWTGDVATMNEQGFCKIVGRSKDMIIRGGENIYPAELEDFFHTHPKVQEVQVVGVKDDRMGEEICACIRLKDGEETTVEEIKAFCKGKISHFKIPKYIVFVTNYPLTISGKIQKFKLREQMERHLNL
Description: (§1) The biochemical assays for testing the selectivity of the compounds according to this invention, were done using human recombinant proteins (Cusabio, China). The readout of the assays was AMP levels, the […] of the reactions, by HPLC method. The acyl substrates (Sigma-Aldrich) of the assays were as followed: ACSS1/ACSS2—Acetate, AACS-Acetoacetyl, ACSF2—Octanoate and ACSL5—Palmitate. The protein in this panel include ACSS1, the closest homolog of ACSS2, in addition to representative short/medium/long chain acyl-CoA syntatases.

ACSS2 [1] = biological target: T2, ACSS2 (Homo sapiens, UniProt Q9NR19); experiment: Acyl-CoA synthetases selectivity panel: ACSS2; type: biochemical; parameters: purchased Cusabio, China; details: human recombinant protein, substrate acetate, AMP readout by HPLC; read-out: HPLC based activity assays IC50 (UM) ACSS2
T2 sequence (Q9NR19 whole entry): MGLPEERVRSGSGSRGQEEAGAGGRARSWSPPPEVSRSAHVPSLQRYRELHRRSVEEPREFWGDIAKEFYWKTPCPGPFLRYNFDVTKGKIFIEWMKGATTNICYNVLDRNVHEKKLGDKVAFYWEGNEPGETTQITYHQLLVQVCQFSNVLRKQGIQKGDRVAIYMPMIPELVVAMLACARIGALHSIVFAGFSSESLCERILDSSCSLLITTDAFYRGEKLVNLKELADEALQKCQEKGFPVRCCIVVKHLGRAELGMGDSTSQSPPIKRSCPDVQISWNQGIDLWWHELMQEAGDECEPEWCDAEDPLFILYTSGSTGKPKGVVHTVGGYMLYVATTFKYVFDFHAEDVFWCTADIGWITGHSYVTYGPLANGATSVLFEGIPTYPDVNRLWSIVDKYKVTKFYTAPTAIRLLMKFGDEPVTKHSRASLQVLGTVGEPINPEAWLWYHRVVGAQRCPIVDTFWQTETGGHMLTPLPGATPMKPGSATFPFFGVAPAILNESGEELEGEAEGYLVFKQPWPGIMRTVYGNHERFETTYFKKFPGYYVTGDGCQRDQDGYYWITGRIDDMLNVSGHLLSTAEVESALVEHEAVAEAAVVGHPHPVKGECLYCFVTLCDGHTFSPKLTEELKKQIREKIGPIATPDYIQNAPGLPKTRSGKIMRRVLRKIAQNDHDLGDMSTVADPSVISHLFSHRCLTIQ
Description: as §1

ACSL5 = biological target: T3, ACSL5 (Homo sapiens, UniProt Q9ULC5); experiment: Acyl-CoA synthetases selectivity panel: ACSL5; type: biochemical; details: human recombinant protein, substrate palmitate, AMP readout by HPLC; read-out: HPLC based activity assays IC50 (UM) ACSL5
T3 construct: purchased Cusabio, China
T3 sequence (Q9ULC5 1-683): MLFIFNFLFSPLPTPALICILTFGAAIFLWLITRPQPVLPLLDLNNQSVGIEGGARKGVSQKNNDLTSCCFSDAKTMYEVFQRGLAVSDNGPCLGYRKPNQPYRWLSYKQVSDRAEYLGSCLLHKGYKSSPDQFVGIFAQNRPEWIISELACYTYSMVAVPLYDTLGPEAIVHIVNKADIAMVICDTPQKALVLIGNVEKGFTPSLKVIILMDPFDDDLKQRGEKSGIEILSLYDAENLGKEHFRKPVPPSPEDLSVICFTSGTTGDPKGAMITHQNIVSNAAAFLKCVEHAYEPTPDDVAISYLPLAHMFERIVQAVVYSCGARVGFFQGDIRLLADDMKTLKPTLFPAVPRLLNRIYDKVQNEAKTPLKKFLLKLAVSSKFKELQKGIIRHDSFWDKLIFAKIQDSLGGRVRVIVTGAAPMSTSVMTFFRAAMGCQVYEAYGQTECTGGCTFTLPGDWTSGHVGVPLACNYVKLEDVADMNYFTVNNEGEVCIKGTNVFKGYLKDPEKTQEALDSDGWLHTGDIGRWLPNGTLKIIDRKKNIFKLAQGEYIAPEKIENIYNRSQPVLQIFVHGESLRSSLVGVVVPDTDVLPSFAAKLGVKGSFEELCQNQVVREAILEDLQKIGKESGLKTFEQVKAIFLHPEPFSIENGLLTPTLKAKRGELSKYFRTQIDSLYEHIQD
Description: as §1

ACSS1 = biological target: T4, ACSS1 (Homo sapiens, UniProt Q9NUB1); experiment: Acyl-CoA synthetases selectivity panel: ACSS1; type: biochemical; details: human recombinant protein, substrate acetate, AMP readout by HPLC; read-out: HPLC based activity assays IC50 (UM) ACSS1
T4 construct: purchased Cusabio, China
T4 sequence (Q9NUB1 38-689): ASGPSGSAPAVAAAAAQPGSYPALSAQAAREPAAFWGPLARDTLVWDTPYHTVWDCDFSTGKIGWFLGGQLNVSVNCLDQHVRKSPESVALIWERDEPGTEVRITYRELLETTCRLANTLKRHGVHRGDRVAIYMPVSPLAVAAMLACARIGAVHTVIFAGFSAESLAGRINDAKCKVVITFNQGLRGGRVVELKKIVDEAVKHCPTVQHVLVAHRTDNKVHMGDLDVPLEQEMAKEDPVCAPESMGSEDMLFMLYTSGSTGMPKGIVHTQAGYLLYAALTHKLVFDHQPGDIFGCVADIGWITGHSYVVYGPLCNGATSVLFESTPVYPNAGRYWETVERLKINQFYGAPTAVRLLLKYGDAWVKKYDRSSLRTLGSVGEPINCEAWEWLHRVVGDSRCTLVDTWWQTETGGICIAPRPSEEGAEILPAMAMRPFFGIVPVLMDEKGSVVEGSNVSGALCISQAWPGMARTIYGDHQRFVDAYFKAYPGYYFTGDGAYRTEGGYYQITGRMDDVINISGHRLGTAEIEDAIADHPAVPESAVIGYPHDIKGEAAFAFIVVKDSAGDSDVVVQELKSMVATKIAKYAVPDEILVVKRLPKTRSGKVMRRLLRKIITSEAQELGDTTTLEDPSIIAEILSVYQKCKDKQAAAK
Description: as §1

AACS = biological target: T5, AACS (Homo sapiens, UniProt Q86V21); experiment: Acyl-CoA synthetases selectivity panel: AACS; type: biochemical; details: human recombinant protein, substrate acetoacetyl, AMP readout by HPLC; read-out: HPLC based activity assays IC50 (UM) AACS
T5 construct: purchased Cusabio, China
T5 sequence (Q86V21 1-672): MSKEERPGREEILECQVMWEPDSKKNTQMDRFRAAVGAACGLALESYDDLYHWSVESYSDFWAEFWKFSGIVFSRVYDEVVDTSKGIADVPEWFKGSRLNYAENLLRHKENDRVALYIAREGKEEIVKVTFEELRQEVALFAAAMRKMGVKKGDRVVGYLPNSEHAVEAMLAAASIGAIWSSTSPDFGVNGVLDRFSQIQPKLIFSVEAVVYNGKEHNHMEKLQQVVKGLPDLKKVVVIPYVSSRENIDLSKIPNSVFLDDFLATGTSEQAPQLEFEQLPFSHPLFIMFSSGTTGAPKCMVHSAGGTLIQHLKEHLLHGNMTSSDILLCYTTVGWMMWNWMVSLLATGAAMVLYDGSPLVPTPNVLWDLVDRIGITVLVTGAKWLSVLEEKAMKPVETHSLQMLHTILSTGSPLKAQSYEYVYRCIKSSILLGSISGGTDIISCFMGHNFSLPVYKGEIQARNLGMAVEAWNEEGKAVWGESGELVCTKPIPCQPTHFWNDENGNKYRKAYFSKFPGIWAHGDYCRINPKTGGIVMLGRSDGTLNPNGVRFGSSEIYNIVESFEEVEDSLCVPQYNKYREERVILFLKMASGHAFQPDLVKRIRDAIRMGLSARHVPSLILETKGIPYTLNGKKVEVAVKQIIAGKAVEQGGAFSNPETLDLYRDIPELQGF
Description: as §1

ACSS2 [2] = biological target: T2, ACSS2; experiment: biochemical
Description: The assay is based on a coupling reaction with Pyrophosphatase: ACSS2 is converting ATP+CoA+Acetate=>AMP+pyrophosphate+Acetyl-CoA (Ac-CoA). Pyrophosphatase converts pyrophosphate, a product of the ACSS2 reaction, to phosphate which can be detected by measuring the absorbance at 620 nm after incubation with the Biomol green reagent (Enzo life Science, BML-AK111).
At the end of the reaction, Biomol Green was added for 30 minutes at RT and the activity was measured by reading the absorbance at 620 nm.

SMILES	IC50 (ACSS2 [2])	further results
CC1=NN(c2ccc(C(F)(F)F)cc2)C(=O)C1C(=O)Nc1cccc(C(C)(F)F)c1 (stereo not drawn) [compound 264, N-(3-(1,1-difluoroethyl)phenyl)-3-methyl-5-oxo-1-(4-(trifluoromethyl)phenyl)-4,5-dihydro-1H-pyrazole-4-carboxamide]		IC50 (ACSF2): 43000 nM; IC50 (ACSS2 [1]): 1 to 10 nM; IC50 (ACSL5): 115000 nM; IC50 (ACSS1): 1000 to 10000 nM; IC50 (AACS): 52000 nM
COc1ccc(N2N=C(C)C(C(=O)Nc3cccc(-c4ccco4)c3)C2=O)cc1 (stereo not drawn) [compound 266, N-(3-(furan-2-yl)phenyl)-1-(4-methoxyphenyl)-3-methyl-5-oxo-4,5-dihydro-1H-pyrazole-4-carboxamide]		IC50 (ACSF2): 51000 nM; IC50 (ACSS2 [1]): < 1 nM; IC50 (ACSL5): 35000 nM; IC50 (ACSS1): 10000 to 100000 nM; IC50 (AACS): 64000 nM
CCc1cccc(NC(=O)C2C(=O)N(c3ccc([N+](=O)[O-])cc3)N=C2C)c1 (stereo not drawn) [compound 157]	1000 to 100000 nM	
CCC(F)(F)c1cccc(NC(=O)C2C(=O)N(c3ccc(OC)c(-c4ccncc4C)c3)N=C2C)c1 (stereo not drawn) [compound 532, N-(3-(1,1-difluoropropyl)phenyl)-1-(4-methoxy-3-(3-methylpyridin-4-yl)phenyl)-3-methyl-5-oxo-4,5-dihydro-1H-pyrazole-4-carboxamide]	0.01 to 6 nM	
CCC(F)(F)c1cccc(NC(=O)C2C(=O)N(c3ccc(OC)cc3)N=C2C(C)=O)c1 (stereo not drawn) [compound 529, 3-acetyl-N-(3-(1,1-difluoropropyl)phenyl)-1-(4-methoxyphenyl)-5-oxo-4,5-dihydro-1H-pyrazole-4-carboxamide]	100 to 1000 nM	
CCC(F)(F)c1cccc(NC(=O)C2C(=O)N(c3ccc4ccn(C(=O)c5ccc(C)cc5)c4c3)N=C2C)c1 (stereo not drawn) [compound 480, N-[3-(1,1-difluoropropyl)phenyl]-3-methyl-1-[1-(4-methylbenzoyl)indol-6-yl]-5-oxo-4H-pyrazole-4-carboxamide]	6 to 100 nM	
CCC(F)(F)c1cccc(NC(=O)C2C(=O)N(c3ccc(OC)c(-c4ccccc4)n3)N=C2C)c1 (stereo not drawn) [compound 498, N-(3-(1,1-difluoropropyl)phenyl)-1-(5-methoxy-6-phenylpyridin-2-yl)-3-methyl-5-oxo-4,5-dihydro-1H-pyrazole-4-carboxamide]	0.01 to 6 nM	
CCC(F)(F)c1cccc(NC(=O)C2C(=O)N(c3ccc4nc[nH]c4c3)N=C2C)c1 (stereo not drawn) [compound 500, 1-(1H-benzo[d]imidazol-6-yl)-N-(3-(1,1-difluoropropyl)phenyl)-3-methyl-5-oxo-4,5-dihydro-1H-pyrazole-4-carboxamide]	0.01 to 6 nM	

Now from value to molecule, other results behind:

IC50 (ACSS2 [2])	SMILES	further results
0.01 to 6 nM	CCC(F)(F)c1cccc(NC(=O)C2C(=O)N(c3ccc4ccn(C(=O)c5ccccc5O)c4c3)N=C2C)c1 (stereo not drawn) [compound 509, N-(3-(1,1-difluoropropyl)phenyl)-1-(1-(2-hydroxybenzoyl)-1H-indol-6-yl)-3-methyl-5-oxo-4,5-dihydro-1H-pyrazole-4-carboxamid]	
0.01 to 6 nM	CCC(F)(F)c1cncc(NC(=O)C2C(=O)N(c3ccc(OC(F)F)cc3)N=C2C)c1 (stereo not drawn) [compound 511, 1-(4-(difluoromethoxy)phenyl)-N-(5-(1,1-difluoropropyl)pyridin-3-yl)-3-methyl-5-oxo-4,5-dihydro-1H-pyrazole-4-carboxamide]	
0.01 to 6 nM	CCC(F)(F)c1cccc(NC(=O)C2C(=O)N(c3ccc(OC)c(-c4cccc(C)n4)c3)N=C2C)c1 (stereo not drawn) [compound 536, N-(3-(1,1-difluoropropyl)phenyl)-1-(4-methoxy-3-(6-methylpyridin-2-yl)phenyl)-3-methyl-5-oxo-4,5-dihydro-1H-pyrazole-4-carboxamide]	
0.01 to 6 nM	C/C=C(\F)c1cccc(NC(=O)C2C(=O)N(c3ccc(OC(F)F)cc3)N=C2C)c1 (stereo not drawn) [compound 494, (Z)-1-(4-(difluoromethoxy)phenyl)-N-(3-(1-fluoroprop-1-en-1-yl)phenyl)-3-methyl-5-oxo-4,5-dihydro-1H-pyrazole-4-carboxamide]	
0.01 to 6 nM	CCC(F)(F)c1cccc(NC(=O)C2C(=O)N(c3ccc(OC(F)F)cc3)N=C2C)n1 (stereo not drawn) [compound 486, 1-(4-(difluoromethoxy)phenyl)-N-(6-(1,1-difluoropropyl)pyridin-2-yl)-3-methyl-5-oxo-4,5-dihydro-1H-pyrazole-4-carboxamide]	
6 to 100 nM	CCC(F)(F)c1cccc(NC(=O)C2C(=O)N(c3ccc(OC)cc3C(C)=O)N=C2C)c1 (stereo not drawn) [compound 516, 1-(2-acetyl-4-methoxyphenyl)-N-(3-(1,1-difluoropropyl)phenyl)-3-methyl-5-oxo-4,5-dihydro-1H-pyrazole-4-carboxamide]	
6 to 100 nM	CCC(F)(F)c1cccc(NC(=O)C2C(=O)N(c3ccc4ccn(CCc5ccccc5)c4c3)N=C2C)c1 (stereo not drawn) [compound 477, N-[3-(1,1-difluoropropyl)phenyl]-3-methyl-5-oxo-1-[1-(2-phenylethyl)indol-6-yl]-4H-pyrazole-4-carboxamide]	
0.01 to 6 nM	CCC(F)(F)c1cccc(NC(=O)C2C(=O)N(c3ccc(OC)c(-c4ccnc(C)c4)c3)N=C2C)c1 (stereo not drawn) [compound 530, N-(3-(1,1-difluoropropyl)phenyl)-1-(4-methoxy-3-(2-methylpyridin-4-yl)phenyl)-3-methyl-5-oxo-4,5-dihydro-1H-pyrazole-4-carboxamide]	

Source: patent US20250186433A1, “ACSS2 INHIBITORS AND METHODS OF USE THEREOF” (EpiVario, Inc., priority 2017, published 2025)
